Assay results from patent US10766869B2, “Triazoles for the treatment of demyelinating dieases” (Vertex Pharmaceuticals Incorporated, priority 2015, dated 2020).
Where two headings read alike, the source gives them in different places.

System: primary rat mixed cortical cells
Assay: In vitro myelination assay (MBP positive myelin strands, fold myelin pixels above background)
Format: cell-based
Conditions: Rattus norvegicus; for fold induction at 1 µM: 1.0 μM compound; for fold induction at 10 µM: 10.0 μM compound
How it was run: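 Mixed cortical culture, P1 rat, 87,500-95,000 cells/well; compound present from seeding, refreshed days 6 and 10; 14 d, 37 °C, 5% CO2. Day 14: PFA fix, anti-MBP + Hoechst. Read-out: fold MBP myelin pixels over untreated, tested at 1.0 and 10.0 μM.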

[1] = read-out: Fold myelin pixels above background relative to baseline of no added compound
[2] = relative to baseline of no added compound, read-out: Fold myelin pixels above background
[3] = relative to baseline of no added compound, read-out: Fold myelin pixels above background, 1.0 μM
[4] = relative to baseline of no added compound, read-out: Fold myelin pixels above background, 10.0 μM

SMILES	fold induction at 1 µM [1]	fold induction at 10 µM [1]	fold induction at 1 µM [2]	fold induction at 10 µM [2]	fold induction at 1 µM [3]	fold induction at 10 µM [4]
Cc1cc(Nc2ncn(-c3ccc(F)c(F)c3)n2)cc(NC2CC(N3CCOCC3)C2)c1 (centres unmarked) [Compound 799, N3-[1-(3,4-difluorophenyl)-1,2,4-triazol-3-yl]-5-methyl-N1-(3-morpholinocyclobutyl)benzene-1,3-diamine]	10 to 100	≤ 1				
Cc1cc(OCC2COC2)cc(Nc2ncn(-c3cc(F)cc(F)c3)n2)c1C [Compound 909, 1-(3,5-difluorophenyl)-N-[2,3-dimethyl-5-(oxetan-3-ylmethoxy)phenyl]-1,2,4-triazol-3-amine]	1 to 10	10 to 100				
Cc1cc(NCC2(C(=O)N(C)C)CCCC2)cc(Nc2ncn(-c3cc(F)cc(F)c3)n2)c1 [Compound 938, 1-[[3-[[1-(3,5-difluorophenyl)-1,2,4-triazol-3-yl]amino]-5-methyl-anilino]methyl]-N,N-dimethyl-cyclopentanecarboxamide]	1 to 10	≤ 1				
Fc1cc(Nc2ncn(-c3cnccn3)n2)cc(N2CCN(C3COC3)CC2)c1 [Compound 598, N-[3-fluoro-5-[4-(oxetan-3-yl)piperazin-1-yl]phenyl]-1-pyrazin-2-yl-1,2,4-triazol-3-amine]			1 to 10	1 to 10		
Cc1cc(Nc2ncn(-c3cc(F)cc(F)c3)n2)cc([C@]2(C)CNC(=O)O2)c1 (single isomer, unassigned) [Compound 655]			10 to 100	≤ 1		
Fc1cc(Nc2ncn(-c3cc(F)cc(F)c3)n2)cc(C2CCN(C3COC3)C2)c1 (centres unmarked) [Compound 268, 1-(3,5-difluorophenyl)-N-[3-fluoro-5-[1-(oxetan-3-yl)pyrrolidin-3-yl]phenyl]-1,2,4-triazol-3-amine]					100 to 1000	1000 to 10000
CCN(CC)CCN1CCN(c2cc(C)cc(Nc3ncn(-c4cc(F)cc(F)c4)n3)c2)CC1 [Compound 987, N-[3-[4-[2-(diethylamino)ethyl]piperazin-1-yl]-5-methyl-phenyl]-1-(3,5-difluorophenyl)-1,2,4-triazol-3-amine]	1 to 10	≤ 1				
Cc1cc(Nc2ncn(-c3ccc(F)c(F)c3)n2)cc(N2CCN(C)CC2)n1 [Compound 263, N-[1-(3,4-difluorophenyl)-1,2,4-triazol-3-yl]-2-methyl-6-(4-methylpiperazin-1-yl)pyridin-4-amine]					10 to 100	100 to 1000
Fc1cc(Nc2ncn(-c3ccc(F)cc3F)n2)cc(N2CCOCC2)c1 [Compound 321, 1-(2,4-difluorophenyl)-N-(3-fluoro-5-morpholino-phenyl)-1,2,4-triazol-3-amine]					1 to 10	≤ 1
COc1ccc(-n2cnc(Nc3cc(Cl)nc(N4CCOCC4)c3)n2)cc1OC [Compound 345, 2-chloro-N-[1-(3,4-dimethoxyphenyl)-1,2,4-triazol-3-yl]-6-morpholino-pyridin-4-amine]					10 to 100	1 to 10
CCOC(=O)C1CCN(c2cc(C)cc(Nc3ncn(-c4cc(F)cc(F)c4)n3)n2)CC1 [Compound 565, ethyl 1-[6-[[1-(3,5-difluorophenyl)-1,2,4-triazol-3-yl]amino]-4-methyl-2-pyridyl]piperidine-4-carboxylate]			≤ 1	≤ 1		
Fc1cc(F)cc(-n2cnc(Nc3cc(C(F)(F)F)cc(N4CC(N5CCOCC5)C4)n3)n2)c1 [Compound 601, N-[1-(3,5-difluorophenyl)-1,2,4-triazol-3-yl]-6-(3-morpholinoazetidin-1-yl)-4-(trifluoromethyl)pyridin-2-amine]			1 to 10	≤ 1		
Cc1cc(Nc2ncn(-c3cc(F)cc(F)c3)n2)cc(N2CC(N3CCS(=O)(=O)CC3)C2)c1 [Compound 661, 1-(3,5-difluorophenyl)-N-[3-[3-(1,1-dioxo-1,4-thiazinan-4-yl)azetidin-1-yl]-5-methyl-phenyl]-1,2,4-triazol-3-amine]			10 to 100	1 to 10		
